In patent publication US11319322B2, “Substituted aryl ether compound, preparation method thereof, pharmaceutical composition and use thereof” (Xiamen University, priority 2017, dated 2022):

How the values were obtained:
KIF5B-RET-BaF3 = biological target: T1, KIF5B-RET-BaF3 (Homo sapiens, UniProt P07949); test: Growth inhibition of KIF5B-RET-BaF3 cells stably transfected with kinase (MTS); type: cell-based; details: 48 h, read-out: KIF5B-RET (IC50/nM)
T1 construct: fused on or other part: P33176 (Kinesin-1 heavy chain)
T1 sequence (P07949 whole entry, change not shown, the tested form may be a part): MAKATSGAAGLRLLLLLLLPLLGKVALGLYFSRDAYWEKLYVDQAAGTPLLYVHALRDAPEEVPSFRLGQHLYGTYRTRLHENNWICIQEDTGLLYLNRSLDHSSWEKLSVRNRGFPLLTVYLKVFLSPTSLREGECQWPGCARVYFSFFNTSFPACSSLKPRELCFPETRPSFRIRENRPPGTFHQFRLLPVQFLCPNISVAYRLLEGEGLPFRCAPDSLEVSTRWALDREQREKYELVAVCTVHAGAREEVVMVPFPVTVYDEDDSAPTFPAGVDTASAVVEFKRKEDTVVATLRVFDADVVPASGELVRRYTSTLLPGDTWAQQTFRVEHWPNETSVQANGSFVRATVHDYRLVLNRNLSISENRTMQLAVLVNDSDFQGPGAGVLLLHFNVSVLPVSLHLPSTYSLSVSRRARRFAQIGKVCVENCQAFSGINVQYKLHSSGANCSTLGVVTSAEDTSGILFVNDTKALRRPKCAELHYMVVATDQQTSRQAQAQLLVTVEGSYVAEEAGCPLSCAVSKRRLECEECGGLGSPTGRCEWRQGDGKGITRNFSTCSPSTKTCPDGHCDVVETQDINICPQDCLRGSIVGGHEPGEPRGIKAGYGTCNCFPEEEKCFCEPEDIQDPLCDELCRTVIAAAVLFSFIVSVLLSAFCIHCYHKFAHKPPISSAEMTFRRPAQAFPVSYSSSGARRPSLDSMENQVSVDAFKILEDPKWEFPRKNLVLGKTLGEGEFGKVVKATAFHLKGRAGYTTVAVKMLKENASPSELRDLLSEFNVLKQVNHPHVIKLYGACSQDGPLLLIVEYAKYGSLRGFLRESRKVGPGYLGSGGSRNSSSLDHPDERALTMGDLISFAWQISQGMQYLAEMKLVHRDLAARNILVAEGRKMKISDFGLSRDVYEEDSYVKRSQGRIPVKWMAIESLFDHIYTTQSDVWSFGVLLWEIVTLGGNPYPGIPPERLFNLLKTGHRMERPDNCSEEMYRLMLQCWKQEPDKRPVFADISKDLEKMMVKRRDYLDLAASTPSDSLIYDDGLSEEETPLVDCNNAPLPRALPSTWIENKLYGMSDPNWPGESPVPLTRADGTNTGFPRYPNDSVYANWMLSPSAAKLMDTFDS
Experimental: (§1) Growth inhibitory activity of compounds on cell lines stably transfected with kinase
(§2) The activity of compounds against kinase RET is evaluated by their effect of inhibiting growth of cell lines stably transfected with kinase CCDC6-RET-BaF3, KIF5B-RET-BaF3, and wild-type BaF3 (Proc. Natl. Acad. Sci. USA., 2006, 103, 3153-8.). The growth of the cell lines stably transfected with kinase CCDC6-RET-BaF3, KIF5B-RET-BaF3 depends on their kinase activity. If a compound can inhibit the activity of the kinase RET per se or the activity of the RET signaling pathway, the compound can inhibit the growth of BaF3 cells stably transfected with kinase. […] Therefore, a larger ratio between IC50 of a compound to wild-type BaF3 and IC50 of the compound to the cell lines stably transfected with kinase CCDC6-RET-BaF3, KIF5B-RET-BaF3 indicates better targeting.
(§3) The specific test method is given as follows:
(§4) 1) Medium: DMEM (Dulbecco's modified eagle medium) or RPMI 1640 (containing 10% fetal bovine serum, 100 μg/mL ampicillin, 100 μg/mL streptomycin).
(§5) 2) Reagents: MTS reaction solution (containing 2 mg/mL of MTS [3-(4,5-dimethylthiazol-2-yl)-5-(3-carboxymethoxyphenyl)-2-(4-sulfophenyl)-2H-tetrazolium, inner Salt]; 100 μg/mL PES (phenazine […])).
(§6) 3) Compound test: cells stably transfected with kinase (CCDC6-RET-BaF3, KIF5B-RET-BaF3) or wild-type BaF3 cells (2×10^4 cells/well) were incubated into a 96-well culture plate, the volume of cell culture fluid was 90 μL, and then 10 μL of the compound at each gradient concentration was added (the highest concentration was 10 μM, which was diluted stepwise by ⅓, and 8 concentration points were set in total; the system contained 0.1% DMSO (dimethyl sulfoxide)). The cell plate with uniformly mixed compound was cultured in a cell culture incubator (37° C.; 5% CO2) for 48 h, then 20 μL of MTS reaction solution was added, uniformly mixed and incubated in the cell culture incubator (37° C.; 5% CO2) for 1-4 hr, OD values at 490 nm were measured by a microplate reader (VARIOSKAN FLASH, Thermo). Three parallels were set in each group of experiments, with 0.1% (a final concentration) DMSO as a negative control, and a medium without cells or compounds as a blank control. The cell growth inhibition rate was calculated by the following formula: Cell growth inhibition rate %=1−(ODexperimental group−ODblank group)/(ODnegative group−ODblank group)×100%
(§7) 4) IC50 calculation: The semi-inhibitory concentration of the compound acting on cell growth was calculated using GradPad Prism 5 software according to the measured cell growth inhibition rate.

CCDC6-RET-BaF3 = biological target: T2, CCDC6-RET-BaF3 (Homo sapiens, UniProt P07949); test: Growth inhibition of CCDC6-RET-BaF3 cells stably transfected with kinase (MTS); type: cell-based; details: 48 h, read-out: CCDC6-RET (IC50/nM)
T2 construct: fused on or other part: Q16204 (Coiled-coil domain-containing protein 6)
T2 sequence (P07949 whole entry, change not shown, the tested form may be a part): as above
Experimental: as §1, §2, §3, §4, §5, §6, §7

Row | Compound | GI50 (KIF5B-RET-BaF3) [nM] | GI50 (CCDC6-RET-BaF3) [nM]
1 | CN1CCN(Cc2ccc(C(=O)Nc3cccc(Oc4nc(-c5cccnc5)nc5c4cnn5C)c3)cc2C(F)(F)F)CC1 [II-h-1] | 953 | 1110
2 | Cc1ccc(-c2nc(Oc3cc(C(=O)Nc4ccc(CN5CCN(C)CC5)c(C(F)(F)F)c4)ccc3C)c3cnn(C)c3n2)cc1 [II-m-4] | 152 | 848
3 | Cc1ccc(Oc2nc(-c3ccncc3)nc3c2ncn3C)cc1NC(=O)c1ccc(CN2CCN(C)CC2)c(C(F)(F)F)c1 [I-j-1] | 2.74 | 0.741
4 | CCC(=O)NC1CCN(c2ccc(NC(=O)c3ccc(C)c(Oc4nc(-c5ccncc5)nc5c4cnn5C)c3)cc2C(F)(F)F)CC1 [II-v-8] | 407 | 346
5 | Cc1ccc(Oc2nc(-c3ccncc3)nc3cc[nH]c23)cc1NC(=O)c1ccc(CN2CCN(C)CC2)c(C(F)(F)F)c1 [III-j-2] | 2.32 | 6.06
6 | Cc1ccc(Oc2nc(-c3cccc(N)c3)nc3c2ncn3C)cc1C(=O)Nc1ccc(CN2CCN(C)CC2)c(C(F)(F)F)c1 [I-n-9] | 1480 | 1550
7 | Cc1ccc(C(=O)Nc2ccc(CN3CCN(C)CC3)c(C(F)(F)F)c2)cc1Oc1nc(Nc2ccccc2)nc2c1cnn2C [II-m-12] | 69.7 | 123
8 | CN1CCN(Cc2ccc(NC(=O)c3cc(Oc4nc(-c5cccc(N)c5)nc5c4ncn5C)ccc3Cl)cc2C(F)(F)F)CC1 [I-o-8] | 1490 | 1590
9 | Cc1ccc(C(=O)Nc2ccc(CN3CCN(C)CC3)c(C(F)(F)F)c2)cc1Oc1nc(N(C)C)nc2c1cnn2C [II-m-18] | 34.3 | 257
10 | Cc1ccc(Oc2nc(-c3ccc(N)cc3)nc3nn(C)cc23)cc1C(=O)Nc1ccc(CN2CCN(C)CC2)c(C(F)(F)F)c1 [IV-n-9] | 1570 | 1830
11 | Cc1ccc(C(=O)Nc2ccc(CN3CCN(C)CC3)c(C(F)(F)F)c2)cc1Oc1nc(-c2ccsc2)nc2c1cnn2C [II-m-10] | 36.4 | 449
12 | CCC(=O)NCC1CCN(c2ccc(NC(=O)c3ccc(C)c(Oc4nc(-c5cccnc5)nc5c4cnn5C)c3)cc2C(F)(F)F)CC1 [II-v-7] | 1200 | 1200
13 | CCC(=O)NCC1CCN(c2ccc(NC(=O)c3ccc(C)c(Oc4nc(-c5ccncc5)nc5cc[nH]c45)c3)cc2C(F)(F)F)CC1 [III-v-13] | – | 18300
14 | CCC(=O)NCC1CCN(c2ccc(NC(=O)c3ccc(C)c(Oc4nc(-c5cccnc5)nc5ccn(C)c45)c3)cc2C(F)(F)F)CC1 [III-v-4] | – | < 4
15 | CCS(=O)(=O)NC1CCN(c2ccc(NC(=O)c3ccc(C)c(Oc4nc(-c5cccnc5)nc5ccn(C)c45)c3)cc2C(F)(F)F)CC1 [III-v-10] | – | < 4
16 | CC(=O)NC1CCN(c2ccc(NC(=O)c3ccc(C)c(Oc4nc(-c5cccnc5)nc5ccn(C)c45)c3)cc2C(F)(F)F)CC1 [III-v-2] | – | < 4
17 | Cc1ccc(Oc2nc(-c3ccncc3)nc3c2cnn3C)cc1NC(=O)c1ccc(CN2CCN(C)CC2)c(C(F)(F)F)c1 [II-j-2] | – | 13.1
18 | CC(=O)NCC1CCN(c2ccc(NC(=O)c3ccc(C)c(Oc4nc(-c5ccncc5)nc5ccn(C)c45)c3)cc2C(F)(F)F)CC1 [III-v-3] | – | 23800
19 | CC(=O)NCC1CCN(c2ccc(NC(=O)c3ccc(C)c(Oc4nc(-c5cccnc5)nc5ccn(C)c45)c3)cc2C(F)(F)F)CC1 [III-v-6] | – | < 4
20 | CCC(=O)NC1CCN(c2ccc(NC(=O)c3ccc(C)c(Oc4nc(-c5cccnc5)nc5ccn(C)c45)c3)cc2C(F)(F)F)CC1 [III-v-7] | – | 148000
21 | CCC(=O)NCC1CCN(c2ccc(NC(=O)c3ccc(C)c(Oc4nc(-c5cccnc5)nc5ccn(C)c45)c3)cc2C(F)(F)F)CC1 [III-v-5] | – | < 4
